Measurements as given in article PMC7461568, “Novel Cyclic Lipopeptide Antibiotics: Effects of Acyl Chain Length and Position” (International Journal of Molecular Sciences, 2020).
Converted amounts (≈) assume the structure as drawn. Where a SMILES comes first, the peptide text is derived from it. [ ]: non-standard residue; d: D form. The star is where a group is joined. 2Nal = N[C@@H](Cc1ccc2ccccc2c1)C(=O)O; Octanoyl = CCCCCCCC(=O)*; Dab = NCC[C@H](N)C(=O)O; AEEA = NCCOCCOCC(=O)O

Assays:
[1] = Hydrophobicity by analytical RP-HPLC (%B at peak elution); type: physicochemical; conditions: chromatographic, percentage of mobile phase B at the peak elution time
Text: To investigate the effect of attaching fatty acids to a macrocycle, fatty acid tails of different lengths were used. When the carbon chain was elongated, the hydrophobicity of the peptide was increased gradually. Herein, the hydrophobicity is expressed as the percentage of mobile phase B at the peak elution time on an RP-HPLC system.

E. coli ATCC 25922 = type: cell-based, Escherichia coli; conditions: MHB-II, inoculum 5 × 10^5 CFU/mL, 37 °C, 18–24 h, visual read-out, triplicate
Protocol: (§1) In the original report on S3(B), MIC experiments were carried out by using non-cation-adjusted MHB-I media. To this, bovine serum albumin (BSA) and acetic acid were added. The rationale for choosing a medium without cations is that cation-adjusted media (MHB-II) in some cases causes substantial inhibition of the activity of cationic peptides. Furthermore, some peptides are at risk of precipitation when diluted into MHB medium, which can be avoided via the addition of BSA and acetic acid. However, the use of MHB-II is favorable to imitate the in vivo conditions as much as possible. Both media were tested with and without the addition of BSA and acetic acid by trial and error. The use of pure MHB-II was compatible with S3(B) and its fatty acid analogues, and therefore was chosen for the MIC determinations. Noticeably, MHB-I with BSA and acetic acid led to precipitation of lipopeptides in the present work.
Cation-adjusted Mueller-Hinton broth (MHB-II) media (BD BBLTM Beef extract powder, BD BactoTMCasamino acids, and DIFCO soluble starch was from Becton, Dickinson and Company©, Franklin Lakes, NJ, USA). MHB media supplemented with 0.2% BSA was from Sigma Aldrich (St. Louis, MO, USA) and 0.01% acetic acid from VWR®. The 96 well plate cell-culture cluster, round-bottom, polypropylene plates, and V-shaped 96 well polypropylene plates were purchased from Corning® Inc., Costar®, Corning, NY, USA. Microseal® film was obtained from Bio-Rad Laboratories, Inc., Hercules, CA, USA. A VersaMaxTM Tunable Microplate Reader (Molecular Devices LLC, Sunnyvale, CA, USA) was used and the data were evaluated on a Softmax® Pro (Molecular Devices LLC).
The MIC experiments were performed according to a protocol adapted from Wiegand et al., with minor modifications. The MICs were determined in triplicate. The peptides were dissolved in Milli-Q water to produce 10 mg/mL stock solutions in small glass containers. The bacterial isolates to be tested were streaked onto agar plates to obtain single colonies, and the plates were incubated at 37 °C for 18–24 h. The strains tested were S. aureus ATCC 29213, P. aeruginosa ATCC 27853, E. coli ATCC 25922, A. baumannii ATCC 19606, and K. pneumonia ATCC 13883. Test compounds were prepared in 2-fold dilutions in 50 μL volumes in polypropylene microtiter plates. Bacterial cultures grown to OD600 = 0.1–0.4 were diluted to a desired OD600 of 0.001–0.002 corresponding to 1 × 10^6 CFU/mL. Next, 50 μL bacterial suspension was added to the microtiter plates, giving a final bacterial inoculum of 5 × 10^5 CFU/mL per well. The plates were incubated at 37 °C for 18–24 h. […] The MIC values were visually evaluated, and the MIC was set to the lowest concentration […] based on triplicate measurements. […]

human erythrocytes = experiment: Hemolysis of red blood cells; conditions: 1 h; for %H, percent hemolytic activity against red blood cells at 150 μM: human erythrocytes, 0.5% v/v RBC suspension in PBS, peptide 150 μM, 37 °C, absorbance 414 nm, melittin positive control, triplicate
Protocol: The hemolysis experiments were performed according to the protocol described in Reference. The peptides were tested at concentrations from 2.35–150 μM, using melittin as positive control and PBS as negative control. One premade tablet of PBS was dissolved in 200 mL Milli-Q water. The solution was kept in the refrigerator for a maximum of two days. The day before the test, the positive control wells of the 96 well polypropylene plates were precoated with 150 μL of melittin 5 μM solution in PBS. The solution was prepared in Protein LoBind Eppendorf tubes. The day of the test, the solution was discarded and the wells were washed three times with 150 μL PBS. A melittin 2.50 μM solution in PBS was prepared in Protein LoBind Eppendorf tubes—500 μL for every plate to be used. The mass of the peptide needed to reach a final concentration of 300 μM (to start testing down from 150 μM) was calculated, since a volume of 500 μL was desirable. […] The peptides were dissolved in PBS and tested in triplicate.
In a 96 well polypropylene plate, 150 μL of peptide solution was transferred to three wells in Row A. Therefore, each plate could accommodate up to four peptides. A 2-fold serial dilution of the peptides was obtained by transferring 75 μL of the solutions from Row A to the corresponding wells in Row B, mixing a couple of times. From Row B, 75 μL was transferred to Row C and so on until Row G, where 75 μL was discarded after mixing. Volumes of 75 μL melittin (2.50 μM) was transferred to the positive control wells in H1–H6. Preparation of the RBC suspension: 1 mL of whole blood was transferred to a cryotube with 3 mL of PBS, and then it was gently mixed and centrifuged for 8 min at 3000 rpm. The supernatant was discarded, and the process was repeated twice; with 4 mL at 3000 rpm and 4 mL at 4000 rpm, respectively. From the final RBC pellet, 40 μL was transferred to 8 mL of PBS (multiplied by the number of test plates needed). This corresponded to a 0.5% v/v RBC suspension. The suspension was gently mixed and transferred into a CAPPOrigami reservoir. Using a multichannel pipette, 75 μL of the suspension was transferred into each well and mixed in the direction of increasing concentration. The control wells were mixed separately. The plates were covered with BioradMicroseal foil and incubated at 37 °C for 1 h. The plates (maximum two) were centrifuged for 10 min at 4000 rpm, followed by transferring of supernatant (60 μL) from each well into the corresponding wells in a clear ELISA plate. The absorbance (A) of each well was measured at λ = 414 nm using the software program Softmax(R) Pro.

A. baumannii ATCC 19606 = type: cell-based, Acinetobacter baumannii; conditions: MHB-II, inoculum 5 × 10^5 CFU/mL, 37 °C, 18–24 h, visual read-out, triplicate
Protocol: as §1, with “The use of pure MHB-II was compatible with S3(B) and its fatty acid analogues, and therefore was chosen for the MIC determinations. Noticeably, MHB-I with BSA and acetic acid led to precipitation of lipopeptides in the present work.” left out
(§2) Cation-adjusted Mueller-Hinton broth (MHB-II) media (BD BBLTM Beef extract powder, BD BactoTMCasamino acids, and DIFCO soluble starch was from Becton, Dickinson and Company©, Franklin Lakes, NJ, USA). […] A VersaMaxTM Tunable Microplate Reader (Molecular Devices LLC, Sunnyvale, CA, USA) was used and the data were evaluated on a Softmax® Pro (Molecular Devices LLC).
(§3) The MIC experiments were performed according to a protocol adapted from Wiegand et al., with minor modifications. The MICs were determined in triplicate. […] The MIC values were visually evaluated, and the MIC was set to the lowest concentration […] based on triplicate measurements. […]

S. aureus ATCC 29213 = experiment: microbe, parasite or virus in culture; type: cell-based, Staphylococcus aureus; conditions: S. aureus ATCC 29213; MHB-II, inoculum 5 × 10^5 CFU/mL, 37 °C, 18–24 h, visual read-out, triplicate
Protocol: as §1, with “The use of pure MHB-II was compatible with S3(B) and its fatty acid analogues, and therefore was chosen for the MIC determinations. Noticeably, MHB-I with BSA and acetic acid led to precipitation of lipopeptides in the present work.” left out
as §2, §3

## CCCCCCCC(=O)NCC[C@@H]1NC(=O)[C@H](CCN)NC(=O)[C@H](CCCNC(=N)N)NC(=O)[C@H](Cc2ccc3ccccc3c2)NC(=O)[C@H](CCN)NC(=O)[C@H](CC(N)=O)NC(=O)[C@H](CCN)NC(=O)[C@H](Cc2ccc3ccccc3c2)NC(=O)COCCOCCNC1=O [(C8)^5] (cyclo([Dab][2Nal]R[Dab][Dab](Octanoyl)[AEEA][2Nal][Dab]N))
[1]
  %B at peak of elution in analytical HPLC (hydrophobicity): 69%
[1]; listed as (C8)^7
  %B at peak of elution in analytical HPLC (hydrophobicity): 71%
E. coli ATCC 25922
  Minimum inhibitory concentration, EC: 16 µg/mL (≈ 12 µM)
Human erythrocytes
  %H, percent hemolytic activity against red blood cells at 150 μM: 42%
Human erythrocytes; listed as (C8)^7
  %H, percent hemolytic activity against red blood cells at 150 μM: 56%
Human erythrocytes; red cells of human
  HD50 (hemolysis): > 150 µM
A. baumannii ATCC 19606
  Minimum inhibitory concentration, AB: 16 µg/mL (≈ 12 µM)
S. aureus ATCC 29213
  Minimum inhibitory concentration, SA: 8 µg/mL (≈ 5.99 µM)
